Measured values from patent US20250129334A1, “LINEAGE SPECIFICATION DURING STEM CELL TRANSITION” (Amniotics AB, priority 2021, published 2025).

How the values were obtained:
iPSC-CD34+ = test: NK cell cytotoxic degranulation (CD107) with or without K562 co-culture; format: cell-based, human; conditions: absence of K562; DCA 10 mM, CP 2.5 μM, cholesterol 0.5x
Excerpt: NK cell anti-tumour activity can occur via cytotoxic degranulation. CD107 is a marker that is present in the cytotoxic vesicles of NK cells, and so is not expressed on the cell surface of inactivated NK cells. However, upon NK cell activation and degranulation, the CD107 target becomes detectable on the cell surface. Therefore, the level of CD107 detected on NK cells correlates with cytotoxic degranulation. In this assay, several exemplary metabolic regulators were used to assess cytotoxic degranulation in a co-culture assay with K562 cells (an exemplary cancer cell model). As a negative control, iPSC-CD34^+ untreated with a metabolic regulator were used, in which a basal level of 3.27% of degranulated NK cells (CD3^−CD56^+CD16^+CD107^+ cells) were observed (FIG. 16A, top panel).

HE cells = test: Lymphoid (NK) differentiation assay on OP9-DL1 stroma; format: cell-based, human; conditions: 3-day treatment, 35-day co-culture; UK5099 10 μM, DCA 3 mM
Protocol: Subculture day 3 HE cells cultured in the presence of UK5099 (10 μM) or DCA (3 mM or 10 mM), as indicated, were collected after a 2-minute incubation at 37° C. with StemPro Accutase Cell Dissociation Reagent and seeded onto 80% confluent OP9-DL1 stroma. Cells were cultured in OP9 medium (OptiMEM medium with Glutamax (Invitrogen) with 10% FCS, 1% penicillin-streptomycin solution (Thermo Fisher Scientific) and 1% 2-mercaptoethanol (Invitrogen)) with SCF (10 ng/ml), FLT3-L (10 ng/ml), IL-2 (5 ng/ml), IL-7 (5 ng/ml, first 15 days only) and IL-15 (10 ng/ml) with passaging onto new OP9-DL1 stroma every week, as described previously (Renoux, V. M. et al. Identification of a Human Natural Killer Cell Lineage-Restricted Progenitor in Fetal and Adult Tissues. Immunity 43, 394-407 (2015)). At day 35 of co-culture, cells were analyzed on a BD LSRFortessa.

fetal liver = test: In vivo compound injection of pregnant mice, fetal liver analysis at E14.5
Protocol: For fetal liver analysis, pregnant female C57Bl/6xB6.SJL mice were injected intraperitoneally at E9.5 with UK5099 (4 mg/kg) or DCA (200 mg/kg) or PBS (control). Embryos were harvested at E14.5 and individually weighed and processed. Fetal livers were dissected and homogenised in 800 μL ice cold PBS supplemented with 2% fetal bovine serum (FBS) and FL cells were washed in PBS with 2%/FBS. For the differentiated lineage panel, cells were stained with B220 and CD19 (B-cell markers)-PE, CD3e-APC, Ter119-PeCy7 and CD71-FITC and analyzed on a BD FACSARIA III. For the HSC panel, samples were first treated with ammonium chloride solution (STEMCELL Technologies, France) to lyse red blood cells, washed twice in ice cold PBS with 2% FBS, stained with CD3e, B220, Ter119, Gr1 (Lineage)-PeCy5, c-Kit-Efluor780, Sca1-BV421, CD48-FITC, CD150-BV605 and 7-AAD (for dead cell exclusion) and analyzed on a BD FACSARIA III. […] For plating of CFU assays, 100 LT-HSCs were sorted (gating strategy shown in FIG. 11, e) and resuspended in 3.0 mL Methocult M3434 (STEMCELL Technologies, France). Each mixture was divided onto 2 wells of a non-tissue culture treated 6-well plate. Following a 14-day incubation in a humidified incubator at 37° C., 5% CO2, 20% O2, colonies were morphologically distinguished and scored. […] Cells were stained with anti-cKit and anti-CD45 antibodies and analyzed on a BD LSRFortessa. […]

Compound	degranulated NK cells (CD3-CD56+CD16+CD107+ cells) (iPSC-CD34+)	increase in degranulated NK cells vs untreated control (iPSC-CD34+)	NK cell differentiation (CD45+CD56+ cells) (HE cells)	frequency of phenotypic long-term HSCs (LT-HSCs) (fetal liver; LSK CD48-CD150+, UK5099 4 mg/kg, DCA 200 mg/kg)	in vivo EHT and hematopoiesis (fetal liver; UK5099 4 mg/kg i.p. at E9.5)
O=C(O)C(Cl)Cl [DCA, dichloroacetate]	13.8 % of the population	more than 4 fold			
N#CC(=Cc1cn(-c2ccccc2)c2ccccc12)C(=O)O [UK5099, 2-Cyano-3-(1-phenyl-1H-indol-3-yl)-2-propenoic acid]			impaired NK cell formation	not significantly affected	did not see a significant effect
